Data: patent US20130095059A1, “INHALED NO DONOR KMUPS DERIVATIVE PREVENTING ALLERGIC PULMONARY VASCULAR AND BRONCHIAL INFLAMMATION VIA SUPPRESSED CYTOKINES, INOS AND INFLAMMATORY CELL COUNTS IN ASTHMA MODEL” (priority 2007, published 2013)

Tests used:
PASMCs = assay: Cell migration (wound) assay of PASMCs; type: cell-based, Wistar rats; conditions: 10-100 μM; 5-HT 10 μM 24 h
Method: Migration of PASMCs was assessed using a wound assay model in which cells grown to confluence on 6 well dishes were scraped with the edge of a fine razor. The wound edge was viewed and photographed under a microscope (Nikon, Tokyo, Japan) before and after culture for 24 h in serum-free DMEM in the presence of 5HT (10 μM). The distance the cells migrated from the wound surface was then manually measured.

iNOS = assay: Ovalbumine model, iNOS expression; type: in vivo, BALB/c mice; conditions: 28-day experiment; nebulization
5-HT2A receptor = molecular target: T1, 5-HT2A receptor (Homo sapiens, UniProt P28223); assay: Displacement of radioligand binding, 5-HT2A; conditions: [^3H]-ketanserin, human recombinant CHO-K1 cells
T1 construct: full length clones of 5-HT2A, 5-HT2B and 5-HT2C receptor were prepared from CHO-K1 cells; expressed in transfected cells; host or cells: CHO-K1
T1 sequence (P28223 whole entry): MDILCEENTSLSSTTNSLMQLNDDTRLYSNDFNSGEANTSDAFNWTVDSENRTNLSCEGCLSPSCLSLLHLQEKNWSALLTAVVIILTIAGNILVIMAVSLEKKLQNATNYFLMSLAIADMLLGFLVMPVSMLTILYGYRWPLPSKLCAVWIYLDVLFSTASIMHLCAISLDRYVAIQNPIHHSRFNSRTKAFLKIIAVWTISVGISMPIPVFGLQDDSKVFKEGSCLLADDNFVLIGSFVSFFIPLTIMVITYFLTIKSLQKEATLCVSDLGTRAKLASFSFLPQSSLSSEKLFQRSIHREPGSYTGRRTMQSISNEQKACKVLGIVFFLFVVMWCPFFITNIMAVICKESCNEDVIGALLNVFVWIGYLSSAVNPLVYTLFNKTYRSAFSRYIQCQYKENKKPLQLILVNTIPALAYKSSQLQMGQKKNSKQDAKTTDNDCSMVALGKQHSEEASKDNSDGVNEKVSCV
Method: Displacement of Radioligand Binding Assay
As described previously, full length clones of 5-HT2A, 5-HT2B and 5-HT2C receptor were prepared from CHO-K1 cells. […] IC50 represents the concentration of competing ligand which displaces 50% of the specific binding of the radioligand. Ki values for competition curves were calculated using the Cheng-Prusoff equation (Cheng, 2001).

RhoA = assay: 5-HT-induced RhoA translocation in PASMCs; type: cell-based, Wistar rats; conditions: 24 h treatment, 1-100 μM
Method: Previous reports have shown that the active form of RhoA is translocated from the cytosol to the plasma membrane, where it activates Rho kinase. Therefore, the membrane/cytosol ratio of RhoA is considered a measure of RhoA activity. The cytosol and membrane protein of PASMCs were extracted with a CNM (cytosol, nuclear, membrane) kit. To assess membrane trans-location of RhoA, protein in membrane and cytosolic fractions was determined by standard Western blot analysis using mouse monoclonal anti-RhoA antibody (1:1000 dilution, Santa Cruz Biotechnology) and a peroxidase-labeled anti-mouse immunoglobulin (Ig) G antibody (1:1000 dilution, Santa Cruz Biotechnology, CA, USA). The relative density of membrane to cytosolic RhoA was determined using NIH imaging software.
The expression of RhoA/ROCK and phosphorylation of ERK1/2 and AKT kinase in PASMCs were assessed by incubating the PASMCs with 5-HT (10 μM) for 15 min (peak time for RhoA/ROCK, ERK1/2 and AKT phosphorylation) and 5-HTT for 10 min (peak time for 5-HTT) after KMUP-1 (1-100 μM) was added to the culture of PASMCs for 24 h.

BALF cells = assay: Ovalbumine model, bronchoalveolar lavage cell counts; type: in vivo, BALB/c mice; conditions: 24 hrs after the last ovalbumine challenge; nebulization
Method: In this long-term experiment, 6-8 week old BALB/c female mice were sensitized on days 1 and 8 by intra-peritoneal injection (i.p.) of ovalbumine (10 μg) (Sigma-Aldrich, Schnelldorf, Germany) adsorbed to 2 mg aluminum hydroxide (AlumInject; Perbio, Erembodegem, Belgium). Mice were divided into three groups. In Group 1, a control group was only exposed to saline nebulization by aerosol. The other 2 groups were subjected to ovalbumine (1%) nebulization. Before each challenge with ovalbumine, mice were either exposed to saline nebulization (Group 2) or KMUP-1 nebulization (5 mM) for 30 min by aerosol (Group 3).
After the sacrifice of mice, a cannula was placed in the trachea for bronchoalveolar lavage by gentle manual aspiration, using cold PBS-EDTA (0.05 mM, 1 ml) (Calbiochem, Darmstadt, Germany) as previously described (Cataldo D D, et al., 2002). The broncho alveolar lavage fluid (BALF) was centrifuged at 4° C. for 10 min (1200 rpm). The supernatant was frozen at −80° C. for protein assessment and the cell pellet was resuspended in PBS-EDTA (0.05 mM, 1 ml). Total cell counts were performed manually using a thoma chamber. The differential cell counts were performed using morphologic criteria on cytocentrifuged preparations (Cytospin) after staining with Diff-Quick (Dade, Belgium). Differential cell counts were performed by one blinded observer unaware of the experimental treatment.

5-HTT = 5-HTT expression in pulmonary artery and lung of MCT-treated rats; type: in vivo; conditions: 21 days after MCT
Method: The experiments were performed in adult male Wistar rats (300 to 350 g) in accordance with institutional guidelines after approval by the ethical review committee. PAH development and pulmonary expression of 5-HTT were examined in rats after 60 mg/kg single injection (i.p.) of monocrotaline (MCT). To assess the potential preventive effect of KMUP-1 on MCT-induced PAH and associated proliferation, we assigned rats at random to 2 groups of 8 animals which received KMUP-1 at 5 mg/kg/day p.o or 1 mg/kg/day i.p. All treatments were given once a day for 3 weeks after a single MCT injection (60 mg/kg i.p.) (Abe et al., 2004). On day 21, rats were anesthetized and pulmonary artery blood pressure (MPAP) was recorded as previously described. Lung tissues were dissected for Western blotting and immunohistochemistry.
For 5-HTT immunostaining, the lung slides were dewaxed in 100% xylene, and the sections were then rehydrated by successive immersion first in decreasing ethanol concentrations (100%, 90%, 80%, 50% and 30%) and then in water. Endogenous peroxidase activity was blocked using H2O2 in methanol (0.3% vol/vol) for 10 min. After three PBS washes, sections were pre-incubated in PBS supplemented with 3% (wt/vol) BSA for 30 min, then incubated overnight at 4° C. with goat polyclonal anti-5-HTT antibody (Abcam Biotechnology, Cambridge, UK) diluted to 1:1000 in 1×PBS, 0.02% BSA. […]

PCNA = assay: PASMCs proliferation (PCNA) in MCT-treated lung tissues; type: in vivo, rats; conditions: day 21 after MCT injection
Method: We evaluated proliferating cell nuclear antigen (PCNA) to assess PASMCs proliferation in rats treated with MCT alone or with KMUP-1. Lung tissue sections were de-paraffinized in xylene and then treated with a graded series of alcohol washes, rehydrated in PBS (pH 7.5), and incubated with target retrieval solution (DAKO Co, Tokyo, Japan) in a water bath at 90° C. for 20 min. Endogenous peroxidase activity was blocked with H2O2 in PBS (3%, vol/vol) for 5 min. Slides were then washed in PBS, incubated for 30 min in a protein blocking solution, and incubated for 30 min with anti-PCNA mouse monoclonal antibody (PC-10, 1:200, Dako). Antibodies were washed off, and the slides were processed with an […] LSAB and system horseradish peroxidase detection kit (DAKO Co, Tokyo, Japan). Brown color was generated with a DAB substrate, and nuclei were counter-stained with hematoxylin.

Cn1c(=O)c2c(ncn2CCN2CCN(c3ccccc3Cl)CC2)n(C)c1=O [KMUP-1, 7-[2-[4-(2-chlorophenyl)piperazinyl]ethyl]-1,3-dimethylxanthine]
5-HT-induced PASMCs migration (PASMCs): concentration-dependently suppressed
increased iNOS expression by ovalbumine sensitization (iNOS): significantly reduced
IC50 (5-HT2A receptor): 340 nM
Ki (5-HT2A receptor; Cheng-Prusoff): 97.1 nM
5-HT-induced RhoA membrane association (RhoA): dose-dependently reversed
increase in total cells, lymphocytes and eosinophils in the airway lumen (BALF cells): significantly reduced
5-HTT protein expression in lung tissue (Western blotting) (5-HTT): significantly reduced
5-HTT expression in pulmonary artery (immunochemistry) (5-HTT; 5 mg/kg p.o. and 1 mg/kg i.p.): significantly decreased
number of PCNA-positive cells in pulmonary artery walls (PCNA): markedly lower
